Results taken from patent publication US20260285850A1, “SUBSTITUTED OXAZOLIDINONES AND IMIDAZOLINONES AS HERBICIDES” (FMC CORPORATION, priority 2023, published 2026).

Key:
Type in all cases: in vivo
[1] = system: ducksalad (Heteranthera limosa); experiment: Test B flooded paddy test, visual plant response rating 0-100; conditions: 250 g ai/ha, Flood, applied to paddy water, evaluated after 13 days
Method in brief: (§1)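 Plants were grown to the 2-leaf stage, then pots were flooded to 3 cm above the soil and compound was applied directly to the paddy water, with that depth kept throughout.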

[2] = system: barnyardgrass (Echinochloa crusgalli); experiment: as above; conditions: 250 g ai/ha, Flood, applied to paddy water, evaluated after 13 days
Method in brief: as §1

[3] = system: rice (Oryza sativa); experiment: as above; conditions: 250 g ai/ha, Flood, applied to paddy water, evaluated after 13 days
Method in brief: as §1

[4] = system: sedge, umbrella (small-flower umbrella sedge, Cyperus difformis); experiment: as above; conditions: 250 g ai/ha, Flood, applied to paddy water, evaluated after 13 days
Method in brief: as §1

[5] = system: wheat (Triticum aestivum); experiment: Test A postemergence application, visual injury rating 0-100; conditions: 10 days
Method in brief: (§2)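 Plants in a loam and sand soil blend were treated with each test chemical, in a non-phytotoxic solvent system including surfactant, either sprayed on seeded soil before emergence or applied after emergence at the one- to two-leaf stage. Ten days later in the greenhouse, plants were compared with untreated controls and visually rated from 0 (no effect) to 100 (complete control).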

[6] = system: soybean (Glycine max); experiment: as above; conditions: 10 days
Method in brief: as §2

[7] = system: green foxtail (Setaria viridis); experiment: as above; conditions: 10 days
Method in brief: as §2

[8] = system: ragweed (common ragweed, Ambrosia artemisiifolia); experiment: as above; conditions: 10 days
Method in brief: as §2

[9] = system: corn (Zea mays); experiment: as above; conditions: 10 days
Method in brief: as §2

[10] = system: barnyardgrass (Echinochloa crus-galli); experiment: as above; conditions: 10 days
Method in brief: as §2

[11] = system: galium (catchweed bedstraw, Galium aparine); experiment: as above; conditions: 10 days
Method in brief: as §2

[12] = system: horseweed (Erigeron canadensis); experiment: as above; conditions: 10 days
Method in brief: as §2

[13] = system: blackgrass (Alopecurus myosuroides); experiment: as above; conditions: 10 days
Method in brief: as §2

[14] = system: palmer (palmer amaranth, palmer pigweed, Amaranthus palmeri); experiment: as above; conditions: 10 days
Method in brief: as §2

[15] = system: oat, wild (wild oat, Avena fatua); experiment: as above; conditions: 10 days
Method in brief: as §2

[16] = system: kochia (Bassia scoparia); experiment: as above; conditions: 10 days
Method in brief: as §2

[17] = system: ryegrass, Italian (italian ryegrass, Lolium multiflorum); experiment: as above; conditions: 10 days
Method in brief: as §2

[18] = system: wheat (Triticum aestivum); experiment: Test A preemergence soil spray, visual injury rating 0-100; conditions: 10 days, 0 = no effect, 100 = complete control
Method in brief: as §2

[19] = system: soybean (Glycine max); experiment: as above; conditions: 10 days, 0 = no effect, 100 = complete control
Method in brief: as §2

[20] = system: green foxtail (Setaria viridis); experiment: as above; conditions: 10 days, 0 = no effect, 100 = complete control
Method in brief: as §2

[21] = system: ragweed (common ragweed, Ambrosia artemisiifolia); experiment: as above; conditions: 10 days, 0 = no effect, 100 = complete control
Method in brief: as §2

[22] = system: corn (Zea mays); experiment: as above; conditions: 10 days, 0 = no effect, 100 = complete control
Method in brief: as §2

[23] = system: barnyardgrass (Echinochloa crus-galli); experiment: as above; conditions: 10 days, 0 = no effect, 100 = complete control
Method in brief: as §2

[24] = system: blackgrass (Alopecurus myosuroides); experiment: as above; conditions: 10 days, 0 = no effect, 100 = complete control
Method in brief: as §2

[25] = system: palmer (palmer amaranth, palmer pigweed, Amaranthus palmeri); experiment: as above; conditions: 10 days, 0 = no effect, 100 = complete control
Method in brief: as §2

[26] = system: oat, wild (wild oat, Avena fatua); experiment: as above; conditions: 10 days, 0 = no effect, 100 = complete control
Method in brief: as §2

[27] = system: kochia (Bassia scoparia); experiment: as above; conditions: 10 days, 0 = no effect, 100 = complete control
Method in brief: as §2

[28] = system: ryegrass, Italian (italian ryegrass, Lolium multiflorum); experiment: as above; conditions: 10 days, 0 = no effect, 100 = complete control
Method in brief: as §2

[29] = 31 g ai/ha, postemergence, 0 = no effect, 100 = complete control
[30] = Postemergence, 125 g ai/ha, 0 is no effect, 100 is complete control

SMILES: COC(=O)C1C=CC(NC(=O)C2(C)CN(c3cc(F)cc(Cl)c3)C(=O)O2)C1 (stereo not shown) [Compound 17]
- Plant response rating, Ducksalad (0 to 100 scale, 0 is no effect and 100 is complete control) [1]: 70
- Plant response rating, Barnyardgrass (0 to 100 scale, 0 is no effect and 100 is complete control) [2]: 70
- Plant response rating, Rice (0 to 100 scale, 0 is no effect and 100 is complete control) [3]: 10
- Plant response rating, Sedge, Umbrella (0 to 100 scale, 0 is no effect and 100 is complete control) [4]: 60
- Wheat plant response rating (0-100) [5, 29]: 90
- Wheat plant response rating (0 to 100 scale) [5, 30]: 90
- Soybean plant response rating (0-100) [6, 29]: 50
- Soybean plant response rating (0 to 100 scale) [6, 30]: 90
- Foxtail, Green plant response rating (0-100) [7, 29]: 80
- Foxtail, Green plant response rating (0 to 100 scale) [7, 30]: 90
- Ragweed plant response rating (0-100) [8, 29]: 30
- Ragweed plant response rating (0 to 100 scale) [8, 30]: 80
- Corn plant response rating (0-100) [9, 29]: 70
- Corn plant response rating (0 to 100 scale) [9, 30]: 100
- Barnyardgrass plant response rating (0-100) [10, 29]: 100
- Barnyardgrass plant response rating (0 to 100 scale) [10, 30]: 100
- Galium plant response rating (0-100) [11, 29]: 80
- Galium plant response rating (0 to 100 scale) [11, 30]: 80
- Horseweed plant response rating (0-100) [12, 29]: 30
- Horseweed plant response rating (0 to 100 scale) [12, 30]: 70
- Blackgrass plant response rating (0-100) [13, 29]: 60
- Blackgrass plant response rating (0 to 100 scale) [13, 30]: 90
- Amaranth, Palmer plant response rating (0-100) [14, 29]: 70
- Amaranth, Palmer / Pigweed, Palmer plant response rating (0 to 100 scale) [14, 30]: 90
- Oat, Wild plant response rating (0-100) [15, 29]: 90
- Oat, Wild plant response rating (0 to 100 scale) [15, 30]: 90
- Kochia plant response rating (0-100) [16, 29]: 60
- Kochia plant response rating (0 to 100 scale) [16, 30]: 70
- Ryegrass, Italian plant response rating (0-100) [17, 29]: 90
- Ryegrass, Italian plant response rating (0 to 100 scale) [17, 30]: 90
- Wheat plant response rating (0-100) ([18]; 31 g ai/ha): 80
- Wheat plant response rating (0 to 100 scale) ([18]; 125 g ai/ha): 90
- Soybean plant response rating (0-100) ([19]; 31 g ai/ha): 0
- Soybean plant response rating (0 to 100 scale) ([19]; 125 g ai/ha): 80
- Foxtail, Green plant response rating (0-100) ([20]; 31 g ai/ha): 50
- Foxtail, Green plant response rating (0 to 100 scale) ([20]; 125 g ai/ha): 100
- Ragweed plant response rating (0-100) ([21]; 31 g ai/ha): 20
- Ragweed plant response rating (0 to 100 scale) ([21]; 125 g ai/ha): 40
- Corn plant response rating (0-100) ([22]; 31 g ai/ha): 20
- Corn plant response rating (0 to 100 scale) ([22]; 125 g ai/ha): 80
- Barnyardgrass plant response rating (0-100) ([23]; 31 g ai/ha): 80
- Barnyardgrass plant response rating (0 to 100 scale) ([23]; 125 g ai/ha): 100
- Blackgrass plant response rating (0-100) ([24]; 31 g ai/ha): 20
- Blackgrass plant response rating (0 to 100 scale) ([24]; 125 g ai/ha): 70
- Amaranth, Palmer plant response rating (0-100) ([25]; 31 g ai/ha): 70
- Amaranth, Palmer plant response rating (0 to 100 scale) ([25]; 125 g ai/ha): 100
- Oat, Wild plant response rating (0-100) ([26]; 31 g ai/ha): 10
- Oat, Wild plant response rating (0 to 100 scale) ([26]; 125 g ai/ha): 80
- Kochia plant response rating (0-100) ([27]; 31 g ai/ha): 50
- Kochia plant response rating (0 to 100 scale) ([27]; 125 g ai/ha): 100
- Ryegrass, Italian plant response rating (0-100) ([28]; 31 g ai/ha): 90
- Ryegrass, Italian plant response rating (0 to 100 scale) ([28]; 125 g ai/ha): 90
